The record followed here is patent US20230041743A1, “1,8-NAPHTHYRIDIN-2-ONE COMPOUNDS FOR THE TREATMENT OF AUTOIMMUNE DISEASE” (Hoffmann-La Roche Inc., priority 2019, published 2023).

The target in one data set is T1, human TLR7 (Homo sapiens, UniProt Q9NYK1).
T1 construct: host or cells: HEK293 (HEK-Blue hTLR7)
T1 sequence (Q9NYK1 27-1049): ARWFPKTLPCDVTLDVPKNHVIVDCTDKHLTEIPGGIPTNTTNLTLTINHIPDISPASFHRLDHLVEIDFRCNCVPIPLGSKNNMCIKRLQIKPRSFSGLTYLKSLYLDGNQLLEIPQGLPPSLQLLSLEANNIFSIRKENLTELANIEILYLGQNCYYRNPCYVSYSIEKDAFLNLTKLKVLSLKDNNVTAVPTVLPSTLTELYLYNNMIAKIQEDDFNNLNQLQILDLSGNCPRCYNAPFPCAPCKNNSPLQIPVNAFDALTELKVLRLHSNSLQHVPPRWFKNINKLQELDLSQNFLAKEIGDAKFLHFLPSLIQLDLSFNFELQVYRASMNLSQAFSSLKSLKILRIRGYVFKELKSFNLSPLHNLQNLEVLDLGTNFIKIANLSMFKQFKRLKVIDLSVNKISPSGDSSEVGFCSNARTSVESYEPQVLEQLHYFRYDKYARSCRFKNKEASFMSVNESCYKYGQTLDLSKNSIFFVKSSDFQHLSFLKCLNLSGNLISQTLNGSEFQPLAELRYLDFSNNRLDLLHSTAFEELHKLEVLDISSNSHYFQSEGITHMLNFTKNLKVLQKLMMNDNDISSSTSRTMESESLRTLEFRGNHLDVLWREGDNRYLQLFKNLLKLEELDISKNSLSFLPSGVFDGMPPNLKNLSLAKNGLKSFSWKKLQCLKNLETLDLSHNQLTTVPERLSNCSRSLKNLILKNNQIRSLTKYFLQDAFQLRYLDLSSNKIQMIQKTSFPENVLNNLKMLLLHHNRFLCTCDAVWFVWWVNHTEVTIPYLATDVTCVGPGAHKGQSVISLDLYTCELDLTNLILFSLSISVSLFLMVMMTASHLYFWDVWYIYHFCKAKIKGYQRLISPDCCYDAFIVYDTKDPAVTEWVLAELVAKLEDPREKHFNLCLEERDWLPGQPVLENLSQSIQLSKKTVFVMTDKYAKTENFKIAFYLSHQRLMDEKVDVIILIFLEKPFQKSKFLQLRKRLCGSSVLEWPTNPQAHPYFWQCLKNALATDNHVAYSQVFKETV
Description: HEK293-Blue-hTLR-7 cells assay (SEAP reporter, R848 stimulation). As to conditions: HEK293-Blue-hTLR7 cells, R848 ligand, 20 hrs incubation; read-out: HEK/hTLR7 IC50. It is filed as cell-based. The source says:
HEK293-Blue-hTLR-7 Cells Assay:
A stable HEK293-Blue-hTLR-7 cell line was purchased from InvivoGen (Cat. #: hkb-htlr7, San Diego, Calif., USA). These cells were originally designed for studying the stimulation of human TLR7 by monitoring the activation of NF-κB. A SEAP (secreted embryonic alkaline phosphatase) reporter gene was placed under the control of the IFN-β minimal promoter fused to five NF-κB and AP-1-binding sites. The SEAP was induced by activating NF-κB and AP-1 via stimulating HEK-Blue hTLR7 cells with TLR7 ligands. Therefore the reporter expression was declined by TLR7 antagonist under the stimulation of a ligand, such as R848 (Resiquimod), for incubation of 20 hrs. The cell culture supernatant SEAP reporter activity was determined using QUANTI-Blue™ kit (Cat. #: rep-qb1, Invivogen, San Diego, Ca, USA) at a wavelength of 640 nm, a detection medium that turns purple or blue in the presence of alkaline phosphatase.
HEK293-Blue-hTLR7 cells were incubated at a density of 250,000-450,000 cells/mL in a volume of 170 μL in a 96-well plate in Dulbecco's Modified Eagle's medium (DMEM) containing 4.5 g/L glucose, 50 U/mL penicillin, […], […], 2 mM L-glutamine, 10% (v/v) heat-inactivated fetal bovine serum with addition of 20 μL test compound in a serial dilution in the presence of final DMSO at 1% and 10 μL of 20 uM R848 in above DMEM, perform incubation under 37° C. in a CO2 incubator for 20 hrs. Then 20 μL of the supernatant from each well was incubated with 180 μL Quanti-blue substrate solution at 37° C. for 2 hrs and the absorbance was read at 620˜655 nm using a spectrophotometer. The signaling pathway that TLR7 activation leads to downstream NF-κB activation has been widely accepted, and therefore similar reporter assay was modified for evaluating TLR7 antagonist.

Data set [1] in a line: Human microsomal stability assay. It is filed as in vitro ADME. As to conditions: human liver microsomes, 1 μM test compound, 0.5 mg/mL protein, 37° C.; low <7.0, medium 7.0-16.2, high 16.2-23.2. On the procedure:
Human Microsomal Stability Assay
Human liver microsomes (Cat. NO.: 452117, Corning, USA) were preincubated with test compound for 10 minutes at 37° C. in 100 mM potassium phosphate buffer, pH 7.4. The reactions were initiated by adding NADPH regenerating system. The final incubation mixtures contained 1 μM test compound, 0.5 mg/mL liver microsomal protein, 1 mM MgCl2, 1 mM NADP, 1 unit/mL isocitric dehydrogenase and 6 mM isocitric acid in 100 mM potassium phosphate buffer, pH 7.4. After incubation times of 0, 3, 6, 9, 15 and 30 minutes at 37° C., 300 μL of cold ACN (including internal standard) was added to 100 μL incubation mixture to terminate the reaction. Following precipitation and centrifugation, 100 uL supernatant will be taken out and added 300 uL water.
The amount of compound remaining in the samples was determined by LC-MS/MS. Controls of no NADPH regenerating system at zero and 30 minutes were also prepared and analyzed. The results were categorized as: low (<7.0 mL/min/kg), medium (7.0-16.2 mL/min/kg) and high (16.2-23.2 mL/min/kg).

For the molecule `C[C@@H]1CN(c2cc(=O)n(C)c3ncccc23)C[C@@H]2c3ccc(N4CCOC5(CNC5)C4)cc3CN12` [Example 11, 4-[(4R,10bS)-4-methyl-8-(5-oxa-2,8-diazaspiro[3.5]nonan-8-yl)-3,4,6,10b-tetrahydro-1H-pyrazino[2,1-a]isoindol-2-yl]-1-methyl-1,8-naphthyridin-2-one], the IC50 at human TLR7 turned out to be 30.5 nM. Moreover, in data set [1], the “CL (h)” value came out at 6.9 mL/min/kg.

With `C[C@@H]1CN(c2cc(=O)n(C)c3ncccc23)C[C@@H]2c3ccc(N4CCNCC4)cc3CN12` [Example 12, 4-[(4R,10bS)-4-methyl-8-piperazin-1-yl-3,4,6,10b-tetrahydro-1H-pyrazino[2,1-a]isoindol-2-yl]-1-methyl-1,8-naphthyridin-2-one], the IC50 on human TLR7 amounted to 11.9 nM. In addition, in data set [1], the “CL (h)” value turned out to be 6.2 mL/min/kg.

`C[C@@H]1CN(c2cc(=O)n(C)c3ncccc23)C[C@@H]2c3ccc(N4CCN[C@@H](C)C4)cc3CN12` [Example 13, 4-[(4R,10bS)-4-methyl-8-[(3S)-3-methylpiperazin-1-yl]-3,4,6,10b-tetrahydro-1H-pyrazino[2,1-a]isoindol-2-yl]-1-methyl-1,8-naphthyridin-2-one]: the IC50 at human TLR7 worked out at 13 nM. Moreover, in data set [1], the “CL (h)” value stood at 7.9 mL/min/kg.

With `C[C@@H]1CN(c2cc(=O)n(C)c3ncccc23)C[C@@H]2c3ccc(N4CCC[C@](C)(N)C4)cc3CN12` [Example 15, 4-[(4R,10bS)-8-[(3S)-3-amino-3-methyl-1-piperidyl]-4-methyl-3,4,6,10b-tetrahydro-1H-pyrazino[2,1-a]isoindol-2-yl]-1-methyl-1,8-naphthyridin-2-one], the IC50 at human TLR7 was found to be 12 nM. Further, the “CL (h)” value in data set [1] is 8.0 mL/min/kg.

Consider `C[C@@H]1CN(c2cc(=O)n(C)c3ncccc23)C[C@@H]2c3ccc(N4CCC[C@@H](N)C4)cc3CN12` [Example 16, 4-[(4R,10bS)-8-[(3R)-3-amino-1-piperidyl]-4-methyl-3,4,6,10b-tetrahydro-1H-pyrazino[2,1-a]isoindol-2-yl]-1-methyl-1,8-naphthyridin-2-one], for which the IC50 on human TLR7 is 15.9 nM. In data set [1], the “CL (h)” value was 8.5 mL/min/kg.

Consider `C[C@@H]1CN(c2cc(=O)n(C)c3ncccc23)C[C@@H]2c3ccc(N4CCC(C)(N)CC4)cc3CN12` [Example 18, 4-[(4R,10bS)-8-(4-amino-4-methyl-1-piperidyl)-4-methyl-3,4,6,10b-tetrahydro-1H-pyrazino[2,1-a]isoindol-2-yl]-1-methyl-1,8-naphthyridin-2-one], for which, at human TLR7, the IC50 amounted to 9.8 nM. Moreover, in data set [1], the “CL (h)” value was 6.2 mL/min/kg.

As for `C[C@@H]1CN(c2cc(=O)n(C)c3ncccc23)C[C@@H]2c3ccc(N4C[C@@H]5C[C@H]4CN5)cc3CN12` [Example 19, 4-[(4R,10bS)-8-[(1S,4S)-2,5-diazabicyclo[2.2.1]heptan-2-yl]-4-methyl-3,4,6,10b-tetrahydro-1H-pyrazino[2,1-a]isoindol-2-yl]-1-methyl-1,8-naphthyridin-2-one], the IC50 on human TLR7 was 15.6 nM. In data set [1], the “CL (h)” value is recorded as 6.2 mL/min/kg.

In the case of `C[C@@H]1CN(c2cc(=O)n(C)c3ncccc23)C[C@@H]2c3ccc(N4C[C@H]5C[C@@H]4CN5)cc3CN12` [Example 20, 4-[(4R,10bS)-8-[(1R,4R)-2,5-diazabicyclo[2.2.1]heptan-2-yl]-4-methyl-3,4,6,10b-tetrahydro-1H-pyrazino[2,1-a]isoindol-2-yl]-1-methyl-1,8-naphthyridin-2-one], the IC50 at human TLR7 is 52.1 nM. In addition, the “CL (h)” value in data set [1] is given as 6.2 mL/min/kg.

On to `C[C@@H]1CN(c2cc(=O)n(C)c3ncccc23)C[C@@H]2c3ccc(N4CC5CCC(C4)N5)cc3CN12` [Example 21, 4-[(4R,10bS)-8-(3,8-diazabicyclo[3.2.1]octan-3-yl)-4-methyl-3,4,6,10b-tetrahydro-1H-pyrazino[2,1-a]isoindol-2-yl]-1-methyl-1,8-naphthyridin-2-one], for which the IC50 on human TLR7 is 13.7 nM. For the same molecule, the “CL (h)” value in data set [1] amounted to 6.4 mL/min/kg.

Turning to `C[C@@H]1CN(c2cc(=O)n(C)c3ncccc23)C[C@@H]2c3ccc(OCCN(C)C)cc3CN12` [Example 23, 4-[(4R,10bS)-8-[2-(dimethylamino)ethoxy]-4-methyl-3,4,6,10b-tetrahydro-1H-pyrazino[2,1-a]isoindol-2-yl]-1-methyl-1,8-naphthyridin-2-one], the IC50 at human TLR7 stood at 31 nM. Further, the “CL (h)” value in data set [1] is on record as 6.2 mL/min/kg.

Turning to `C[C@@H]1CN(c2cc(=O)n(C)c3ncccc23)C[C@@H]2c3ccc(C4CCNCC4)cc3CN12` [Example 24, 4-[(4R,10bS)-4-methyl-8-(4-piperidyl)-3,4,6,10b-tetrahydro-1H-pyrazino[2,1-a]isoindol-2-yl]-1-methyl-1,8-naphthyridin-2-one], the IC50 on human TLR7 is 3.7 nM. The “CL (h)” value in data set [1] was 6.2 mL/min/kg.

In the case of `C[C@@H]1CN(c2cc(=O)n(C)c3ncccc23)C[C@@H]2c3ccc(C4CCCNC4)cc3CN12` (stereo partly drawn) [Example 25, 4-[(4R,10bS)-4-methyl-8-(3-piperidyl)-3,4,6,10b-tetrahydro-1H-pyrazino[2,1-a]isoindol-2-yl]-1-methyl-1,8-naphthyridin-2-one], at human TLR7, the IC50 was 6.7 nM. The “CL (h)” value in data set [1] is listed as 6.2 mL/min/kg.

For `C[C@@H]1CN(c2cc(=O)n(C)c3ncccc23)C[C@@H]2c3ccc(C4CCNC4)cc3CN12` (stereo partly drawn) [Example 26, 4-[(4R,10bS)-4-methyl-8-pyrrolidin-3-yl-3,4,6,10b-tetrahydro-1H-pyrazino[2,1-a]isoindol-2-yl]-1-methyl-1,8-naphthyridin-2-one], the IC50 on human TLR7 came to 8.3 nM. Also, the “CL (h)” value in data set [1] came to 9.8 mL/min/kg.

On to `C[C@@H]1CN(c2cc(=O)n(C)c3ncccc23)C[C@@H]2c3ccc([C@H]4CC[C@H](N5CCOCC5)CC4)cc3CN12` [Example 27A, 4-[(4R,10bS)-4-methyl-8-(trans-4-morpholinocyclohexyl)-3,4,6,10b-tetrahydro-1H-pyrazino[2,1-a]isoindol-2-yl]-1-methyl-1,8-naphthyridin-2-one], for which the IC50 on human TLR7 was 7 nM. In data set [1], the “CL (h)” value was found to be 7.3 mL/min/kg.
